# Paper PMC8772704, “Quantification of Fosfomycin in Combination with Nine Antibiotics in Human Plasma and Cation-Adjusted Mueller-Hinton II Broth via LCMS” (Antibiotics, 2022)
# How the values were obtained:
# [1] = 32-day stability of stock solutions stored at −80 °C; type: physicochemical; conditions: stock solution stored at -80 °C; peak area Day 32 vs Day 1
# Procedure: Stability of stock solutions
# All stock solutions of antibiotics and their corresponding stable-isotope variants were measured prior to cold storage at -80 °C and tested at 32 days later.
# Stability was determined by comparing the peak area of each drug between its Day 1 and Day 32 measurement. Acceptable criteria for stability was met if the […]
# [2] = Autosampler stability at 4 °C of extracted antibiotic-spiked plasma/CAMHB samples; conditions: for Mean accuracy (%), Table S8 / Mean accuracy (%), Table S10: CAMHB extracted samples; for Mean accuracy (%), Table S8 / Mean accuracy (%), Table S7: 7 h autosampler 4 °C; for Mean accuracy (%), Table S10 / Mean accuracy (%), Table S9: 15 h autosampler 4 °C; for Mean accuracy (%), Table S7 / Mean accuracy (%), Table S9: plasma extracted samples
# Procedure: (§1) The stability of fosfomycin in combination with other antibiotics in plasma/CAMHB was evaluated under various operational conditions. Spiked plasma/CAMHB samples were evaluated at 7 h and 15 h in the autosampler at 4 °C. Long-term stability was evaluated up to 4 weeks of antibiotic-spiked plasma/CAMHB samples at LQC, MQC, and HQC concentrations stored at −30 °C and −80 °C.
# [3] = Long-term storage stability of antibiotics in combination with fosfomycin spiked in plasma/CAMHB (−30 °C, −80 °C); type: physicochemical; conditions: for Mean accuracy (%), Table S15 / Mean accuracy (%), Table S17 / Mean accuracy (%), Table S16 / Mean accuracy (%), Table S18: CAMHB; for Mean accuracy (%), Table S15 / Mean accuracy (%), Table S17 / Mean accuracy (%), Table S16 / Mean accuracy (%), Table S18 / Mean accuracy (%), Table S11 / Mean accuracy (%), Table S13 / Mean accuracy (%), Table S12 / Mean accuracy (%), Table S14: combination with fosfomycin; for Mean accuracy (%), Table S15 / Mean accuracy (%), Table S11: 2 weeks at -30 °C; for Mean accuracy (%), Table S17 / Mean accuracy (%), Table S13: 2 weeks at -80 °C; for Mean accuracy (%), Table S16 / Mean accuracy (%), Table S12: 4 weeks at -30 °C; for Mean accuracy (%), Table S18 / Mean accuracy (%), Table S14: 4 weeks at -80 °C
# Procedure: as §1
# [4] = HQC: nominal mg/L CAZ 150, FEP 200, PIP 250, ATM 300, MEM 200, DOR 175, LVX 30, CEFT 250, TZB 87.5, TGC 20, AVI 30, FOF 1000
# [5] = LQC: nominal 1 mg/L (levofloxacin, avibactam 0.5; fosfomycin 10)
# [6] = MQC: nominal mg/L CAZ 75, FEP 100, PIP 150, ATM 150, MEM 100, DOR 87.5, LVX 15, CEFT 125, TZB 43.75, TGC 10, AVI 15, FOF 500
SMILES,32 Day Stability (%) [1] [%],"Mean accuracy (%), Table S8 ([2]; HQC (nominal as E15)) [%]","Mean accuracy (%), Table S8 ([2]; LQC (nominal as E13)) [%]","Mean accuracy (%), Table S8 ([2]; MQC (nominal as E14)) [%]","Mean accuracy (%), Table S10 ([2]; HQC (nominal as E15)) [%]","Mean accuracy (%), Table S10 ([2]; LQC (nominal as E13)) [%]","Mean accuracy (%), Table S10 ([2]; MQC (nominal as E14)) [%]","Mean accuracy (%), Table S7 [2, 4] [%]","Mean accuracy (%), Table S7 [2, 5] [%]","Mean accuracy (%), Table S7 [2, 6] [%]","Mean accuracy (%), Table S9 ([2]; HQC (nominal as E15)) [%]","Mean accuracy (%), Table S9 ([2]; LQC (nominal as E13)) [%]","Mean accuracy (%), Table S9 ([2]; MQC (nominal as E14)) [%]","Mean accuracy (%), Table S15 ([3]; HQC (nominal as E15)) [%]","Mean accuracy (%), Table S15 ([3]; LQC (nominal as E13)) [%]","Mean accuracy (%), Table S15 ([3]; MQC (nominal as E14)) [%]","Mean accuracy (%), Table S17 ([3]; HQC (nominal as E15)) [%]","Mean accuracy (%), Table S17 ([3]; LQC (nominal as E13)) [%]","Mean accuracy (%), Table S17 ([3]; MQC (nominal as E14)) [%]","Mean accuracy (%), Table S16 ([3]; HQC (nominal as E15)) [%]",other results
"CCN1CCN(C(=O)N[C@@H](C(=O)N[C@@H]2C(=O)N3[C@@H]2SC(C)(C)[C@@H]3C(=O)O)c2ccccc2)C(=O)C1=O [Piperacillin, piperacillin]",100.48,89.6,113.7,86.7,90.6,112.7,87.6,87.5,109.5,84.0,89.6,109.9,86.8,89.0,106.0,89.5,89.6,111.6,92.6,69.6,"Stability verdict (within ±15% of nominal) ([3]; CAMHB samples stored at −30 °C, 4 weeks): instability; Mean accuracy (%), Table S16 ([3]; LQC (nominal as E13)): 90.6%; Mean accuracy (%), Table S16 ([3]; MQC (nominal as E14)): 67.5%; Mean accuracy (%), Table S18 ([3]; HQC (nominal as E15)): 87.6%; Mean accuracy (%), Table S18 ([3]; LQC (nominal as E13)): 109.4%; Mean accuracy (%), Table S18 ([3]; MQC (nominal as E14)): 90.6%; Stability data ([3]; plasma, 2-week and 4-week intervals): 86–88%; Mean accuracy (%), Table S11 ([3]; plasma, HQC (nominal as E15)): 88.5%; Mean accuracy (%), Table S11 ([3]; plasma, LQC (nominal as E13)): 112.6%; Mean accuracy (%), Table S11 ([3]; plasma, MQC (nominal as E14)): 92.7%; Mean accuracy (%), Table S13 ([3]; plasma, HQC (nominal as E15)): 88.6%; Mean accuracy (%), Table S13 ([3]; plasma, LQC (nominal as E13)): 109.5%; Mean accuracy (%), Table S13 ([3]; plasma, MQC (nominal as E14)): 93.0%; Mean accuracy (%), Table S12 ([3]; plasma, LQC (nominal as E13)): 106.0%; Mean accuracy (%), Table S14 ([3]; plasma, LQC (nominal as E13)): 111.6%"
"CN(C)c1cc(NC(=O)CNC(C)(C)C)c(O)c2c1C[C@H]1C[C@H]3[C@H](N(C)C)C(O)=C(C(N)=O)C(=O)[C@@]3(O)C(O)=C1C2=O [Tigecycline, tigecycline]",102.57,103.5,100.6,103.1,103.2,101.8,100.2,110.0,106.7,112.7,111.0,105.1,106.3,87.2,98.8,87.3,102.3,98.9,106.1,91.2,"Mean accuracy (%), Table S16 ([3]; LQC (nominal as E13)): 87.0%; Mean accuracy (%), Table S16 ([3]; MQC (nominal as E14)): 100.6%; Mean accuracy (%), Table S18 ([3]; HQC (nominal as E15)): 91.0%; Mean accuracy (%), Table S18 ([3]; LQC (nominal as E13)): 87.6%; Mean accuracy (%), Table S18 ([3]; MQC (nominal as E14)): 95.3%; Mean accuracy (%), Table S11 ([3]; plasma, HQC (nominal as E15)): 102.5%; Mean accuracy (%), Table S11 ([3]; plasma, LQC (nominal as E13)): 111.9%; Mean accuracy (%), Table S11 ([3]; plasma, MQC (nominal as E14)): 98.9%; Mean accuracy (%), Table S13 ([3]; plasma, HQC (nominal as E15)): 107.8%; Mean accuracy (%), Table S13 ([3]; plasma, LQC (nominal as E13)): 109.8%; Mean accuracy (%), Table S13 ([3]; plasma, MQC (nominal as E14)): 100.1%; Mean accuracy (%), Table S12 ([3]; plasma, HQC (nominal as E15)): 110.7%; Mean accuracy (%), Table S12 ([3]; plasma, LQC (nominal as E13)): 97.8%; Mean accuracy (%), Table S12 ([3]; plasma, MQC (nominal as E14)): 102.8%; Mean accuracy (%), Table S14 ([3]; plasma, HQC (nominal as E15)): 112.3%; Mean accuracy (%), Table S14 ([3]; plasma, LQC (nominal as E13)): 96.9%; Mean accuracy (%), Table S14 ([3]; plasma, MQC (nominal as E14)): 105.0%"
